Data: patent US20050163815A1, “Use of plant materials as a terrestrial molluscicidal and/or molloscrepellant agent” (priority 2002, published 2005)

Tested on: Deroceras reticulatum
Assay: Laboratory terraria barrier test on blotting paper (winter wheat seed hollowing, slug mortality)
Format: in vivo
Settings: for slug mortality: barrier on blotting paper
Experimental: Plastic trays (0.07 m^2) were lined with unbleached blotting paper and saturated with de-ionised water. Three groups of eight winter wheat seeds were placed into each tray and each group surrounded with approximately 1-2 g of test material, forming a barrier with approximately 1 cm diameter. Four slugs (Deroceras reticulatum) pre-starved for 24-48 hours were introduced to the trays. The tests were performed under controlled conditions (12 hours light 15° C.: 12 hours dark 15° C., 90% humidity). Five replicates were prepared per condition.
The trays were observed daily, for seven days, for seed hollowing and mortality. After the seven days, the slugs were replaced with naive slugs and the test run for a further seven days. Mortality was indicated by failure to respond to 12-volt D.C. stimuli.
Note: i) In all the experiments, a negative control was prepared consisting of slugs only, sawdust only, or “alcoholic” sawdust. ii) Metaldehyde (4%) was used as a positive control, to compare the toxicity properties of the 100% plant raw materials, rather than as a physical barrier.
The method is identical to that used in Example 1 above.

Q: Which seed hollowing (barrier around winter wheat seeds on blotting paper, first seven days (days 1 to 7)) does the source give for `CC1OC(C)OC(C)OC(C)O1` (stereo not drawn) [metaldehyde (4%), metaldehyde] here?
A: The seed hollowing was 1%.

Q: What about the slug mortality (days 8 to 14) of the same compound?
A: Its slug mortality is 100%.

Q: What about the slug mortality (first seven days) of the same compound?
A: Its slug mortality is 90%.
